# Square brackets hold non-standard residues; d marks the D form. Peptide text beside a SMILES is read from it.
# Biological target: human CXCR4 (Homo sapiens, UniProt P61073)
# Assay: CXCR4/CXCL12 binding, HTRF format, single concentration (Example 23)
# Set-up: host or cells: HEK293 (Tag-lite CXCR4 cells, frozen aliquots, transient expression)
# Details: 15 nM CXCR4R fluorescent probe, 3 hours, HEK293 Tag-lite CXCR4 cells
# Description: Peptides were initially prepared as 1 mM stock in H2O and tested at a final concentration of 400 nM. Following the manufacture's protocol, a frozen aliquot of Tag-lite CXCR4 cells was thawed and immediately seeded onto 384-well plates in TLB. Immediately following the addition of cells, 400 nM peptide (final concentration) in TLB was added to the appropriate well. Then 15 nM (final concentration; EC80) of CXCR4R fluorescent probe was added to each well to initiate the HTRF assay. The plates were covered in aluminum foil and left at room temperature for 3 hours. Following the 3 hour incubation period, the plates were removed from the incubator and fluorescence measured using a Cytation 1 plate reader using a HTRF filter cube ([…]; BioTek; Winooski, Vt.). According manufacture's instruction data reduction was performed by calculating the ratio of 665 nm signal (TRF of 665 nm excitation by 620 emission; amount of CXCR4R fluorescent probe bound to terbium labeled CXCR receptor)/620 nm signal (620 excitation by 330 nm light source; normalization factor for amount of terbium labeled CXCR4 receptor in well)×10,000.
# Sequence of human CXCR4 (P61073 whole entry): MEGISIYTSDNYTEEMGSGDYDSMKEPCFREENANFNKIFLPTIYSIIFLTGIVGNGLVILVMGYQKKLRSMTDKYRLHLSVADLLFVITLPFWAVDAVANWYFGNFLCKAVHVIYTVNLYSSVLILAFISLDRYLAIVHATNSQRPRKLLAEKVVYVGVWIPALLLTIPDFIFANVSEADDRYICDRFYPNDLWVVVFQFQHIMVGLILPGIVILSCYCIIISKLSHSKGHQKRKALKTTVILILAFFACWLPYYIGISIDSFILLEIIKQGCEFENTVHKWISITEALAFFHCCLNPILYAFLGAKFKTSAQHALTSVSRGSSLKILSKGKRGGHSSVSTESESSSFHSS
row,Percent Inhibition of CXCR4/CXCL12 Binding (400 nM peptide),SMILES
1,−8%,CC(C)C[C@H](NC(=O)[C@H](CO)NC(=O)[C@H](CO)NC(=O)[C@H](CCCNC(=N)N)NC(=O)[C@@H](NC(=O)[C@H](CO)NC(=O)[C@H](Cc1c[nH]cn1)NC(=O)[C@H](Cc1c[nH]cn1)NC(=O)[C@H](Cc1ccc(O)cc1)NC(=O)[C@H](CCCNC(=N)N)NC(=O)[C@@H](N)CCCNC(=N)N)C(C)C)C(=O)N[C@@H](CCCNC(=N)N)C(=O)N1CCC[C@H]1C(=O)N[C@@H](Cc1ccc(O)cc1)C(=O)N[C@H](C(=O)N[C@@H](CCCCN)C(=O)O)[C@@H](C)O [compound 10] (H-RRYHHSVRSSLRPYTK-OH; N-terminus and C-terminus assumed)
2,44%,CC(C)C[C@H](NC(=O)[C@H](CO)NC(=O)[C@H](CO)NC(=O)[C@H](CCCNC(=N)N)NC(=O)[C@@H](NC(=O)[C@H](CO)NC(=O)[C@H](Cc1c[nH]cn1)NC(=O)[C@H](Cc1c[nH]cn1)NC(=O)[C@H](Cc1ccc(O)cc1)NC(=O)[C@H](CCCNC(=N)N)NC(=O)[C@H](CCC(=O)O)NC(=O)[C@@H](N)CC(C)C)C(C)C)C(=O)N[C@@H](CCCNC(=N)N)C(=O)N1CCC[C@H]1C(=O)N[C@@H](Cc1ccc(O)cc1)C(=O)O [compound 19] (H-LERYHHSVRSSLRPY-OH; N-terminus and C-terminus assumed)
3,37%,CC(C)C[C@H](NC(=O)[C@H](CO)NC(=O)[C@H](CO)NC(=O)[C@H](CCCNC(=N)N)NC(=O)[C@@H](NC(=O)[C@H](CO)NC(=O)[C@H](Cc1c[nH]cn1)NC(=O)[C@H](Cc1c[nH]cn1)NC(=O)[C@H](Cc1ccc(O)cc1)NC(=O)[C@H](CCCNC(=N)N)NC(=O)[C@H](CCC(=O)O)NC(=O)[C@@H](N)CC(C)C)C(C)C)C(=O)N[C@@H](CCCNC(=N)N)C(=O)N1CCC[C@H]1C(=O)O [compound 20] (H-LERYHHSVRSSLRP-OH; N-terminus and C-terminus assumed)
4,20%,CC(C)C[C@H](NC(=O)[C@H](CO)NC(=O)[C@H](CO)NC(=O)[C@H](CCCNC(=N)N)NC(=O)[C@@H](NC(=O)[C@H](CO)NC(=O)[C@H](Cc1c[nH]cn1)NC(=O)[C@H](Cc1c[nH]cn1)NC(=O)[C@H](Cc1ccc(O)cc1)NC(=O)[C@H](CCCNC(=N)N)NC(=O)[C@H](CCC(=O)O)NC(=O)[C@@H](N)CC(C)C)C(C)C)C(=O)N[C@@H](CCCNC(=N)N)C(=O)O [compound 21] (H-LERYHHSVRSSLR-OH; N-terminus and C-terminus assumed)
5,23%,CC(C)C[C@H](N)C(=O)N[C@@H](CCC(=O)O)C(=O)N[C@@H](CCCNC(=N)N)C(=O)N[C@@H](Cc1ccc(O)cc1)C(=O)N[C@@H](Cc1c[nH]cn1)C(=O)N[C@@H](Cc1c[nH]cn1)C(=O)N[C@@H](CO)C(=O)N[C@H](C(=O)N[C@@H](CCCNC(=N)N)C(=O)N[C@@H](CO)C(=O)N[C@@H](CO)C(=O)O)C(C)C [compound 23] (H-LERYHHSVRSS-OH; N-terminus and C-terminus assumed)
6,8%,CC(C)C[C@H](NC(=O)[C@H](CO)NC(=O)[C@H](CO)NC(=O)[C@H](CCCNC(=N)N)NC(=O)[C@@H](NC(=O)[C@H](CO)NC(=O)[C@H](Cc1c[nH]cn1)NC(=O)[C@H](Cc1c[nH]cn1)NC(=O)[C@H](Cc1ccc(O)cc1)NC(=O)[C@H](CCCNC(=N)N)NC(=O)[C@H](CCCNC(=N)N)NC(=O)[C@@H](N)CC(C)C)C(C)C)C(=O)N[C@@H](CCCNC(=N)N)C(=O)N1CCC[C@H]1C(=O)N[C@@H](Cc1ccc(O)cc1)C(=O)N[C@H](C(=O)O)[C@@H](C)O [compound 24] (H-LRRYHHSVRSSLRPYT-OH; N-terminus and C-terminus assumed)
7,0%,CC(C)C[C@H](NC(=O)[C@H](CO)NC(=O)[C@H](CO)NC(=O)[C@H](CCCNC(=N)N)NC(=O)[C@@H](NC(=O)[C@H](CO)NC(=O)[C@H](Cc1c[nH]cn1)NC(=O)[C@H](Cc1c[nH]cn1)NC(=O)[C@H](Cc1ccc(O)cc1)NC(=O)[C@H](CCCNC(=N)N)NC(=O)[C@H](CCCNC(=N)N)NC(=O)[C@@H](N)CC(C)C)C(C)C)C(=O)N[C@@H](CCCNC(=N)N)C(=O)N1CCC[C@H]1C(=O)N[C@@H](Cc1ccc(O)cc1)C(=O)O [compound 25] (H-LRRYHHSVRSSLRPY-OH; N-terminus and C-terminus assumed)
8,1%,CC(C)C[C@H](NC(=O)[C@H](CO)NC(=O)[C@H](CO)NC(=O)[C@H](CCCNC(=N)N)NC(=O)[C@@H](NC(=O)[C@H](CO)NC(=O)[C@H](Cc1c[nH]cn1)NC(=O)[C@H](Cc1c[nH]cn1)NC(=O)[C@H](Cc1ccc(O)cc1)NC(=O)[C@H](CCCNC(=N)N)NC(=O)[C@H](CCCNC(=N)N)NC(=O)[C@@H](N)CC(C)C)C(C)C)C(=O)N[C@@H](CCCNC(=N)N)C(=O)N1CCC[C@H]1C(=O)O [compound 26] (H-LRRYHHSVRSSLRP-OH; N-terminus and C-terminus assumed)
9,10%,CC(C)C[C@H](NC(=O)[C@H](CO)NC(=O)[C@H](CO)NC(=O)[C@H](CCCNC(=N)N)NC(=O)[C@@H](NC(=O)[C@H](CO)NC(=O)[C@H](Cc1c[nH]cn1)NC(=O)[C@H](Cc1c[nH]cn1)NC(=O)[C@H](Cc1ccc(O)cc1)NC(=O)[C@H](CCCNC(=N)N)NC(=O)[C@H](CCCNC(=N)N)NC(=O)[C@@H](N)CC(C)C)C(C)C)C(=O)N[C@@H](CCCNC(=N)N)C(=O)O [compound 27] (H-LRRYHHSVRSSLR-OH; N-terminus and C-terminus assumed)
10,14%,CC(C)C[C@H](N)C(=O)N[C@@H](CCCNC(=N)N)C(=O)N[C@@H](CCCNC(=N)N)C(=O)N[C@@H](Cc1ccc(O)cc1)C(=O)N[C@@H](Cc1c[nH]cn1)C(=O)N[C@@H](Cc1c[nH]cn1)C(=O)N[C@@H](CO)C(=O)N[C@H](C(=O)N[C@@H](CCCNC(=N)N)C(=O)N[C@@H](CO)C(=O)N[C@@H](CO)C(=O)O)C(C)C [compound 29] (H-LRRYHHSVRSS-OH; N-terminus and C-terminus assumed)
11,32%,CC(C)C[C@H](NC(=O)[C@H](CO)NC(=O)[C@H](CO)NC(=O)[C@H](CCCNC(=N)N)NC(=O)[C@@H](NC(=O)[C@H](CO)NC(=O)[C@H](Cc1c[nH]cn1)NC(=O)[C@H](CC(N)=O)NC(=O)[C@H](Cc1ccc(O)cc1)NC(=O)[C@H](CCCNC(=N)N)NC(=O)[C@H](CCC(=O)O)NC(=O)[C@@H](N)CC(C)C)C(C)C)C(=O)N[C@@H](CCCNC(=N)N)C(=O)N1CCC[C@H]1C(=O)N[C@@H](Cc1ccc(O)cc1)C(=O)N[C@H](C(=O)N[C@@H](CCCCN)C(=O)O)[C@@H](C)O [compound 42] (H-LERYNHSVRSSLRPYTK-OH; N-terminus and C-terminus assumed)
12,0%,CC(C)C[C@H](NC(=O)[C@H](CO)NC(=O)[C@H](CO)NC(=O)[C@H](CCCNC(=N)N)NC(=O)[C@@H](NC(=O)[C@H](CO)NC(=O)[C@H](CC(N)=O)NC(=O)[C@H](Cc1c[nH]cn1)NC(=O)[C@H](Cc1ccc(O)cc1)NC(=O)[C@H](CCCNC(=N)N)NC(=O)[C@H](CCCNC(=N)N)NC(=O)[C@@H](N)CC(C)C)C(C)C)C(=O)N[C@@H](CCCNC(=N)N)C(=O)N1CCC[C@H]1C(=O)N[C@@H](Cc1ccc(O)cc1)C(=O)N[C@H](C(=O)N[C@@H](CCCCN)C(=O)O)[C@@H](C)O [compound 44] (H-LRRYHNSVRSSLRPYTK-OH; N-terminus and C-terminus assumed)
13,−4%,CC(C)C[C@H](NC(=O)[C@H](CO)NC(=O)[C@H](CO)NC(=O)[C@H](CCCNC(=N)N)NC(=O)[C@@H](C)NC(=O)[C@H](CO)NC(=O)[C@H](CC(N)=O)NC(=O)[C@H](Cc1c[nH]cn1)NC(=O)[C@H](Cc1ccc(O)cc1)NC(=O)[C@H](CCCNC(=N)N)NC(=O)[C@H](CCC(=O)O)NC(=O)[C@@H](N)CC(C)C)C(=O)N[C@@H](CCCNC(=N)N)C(=O)N1CCC[C@H]1C(=O)N[C@@H](Cc1ccc(O)cc1)C(=O)N[C@H](C(=O)N[C@@H](CCCCN)C(=O)O)[C@@H](C)O [compound 46] (H-LERYHNS[dA]RSSLRPYTK-OH; N-terminus and C-terminus assumed)
14,13%,CC(C)C[C@H](NC(=O)[C@H](CO)NC(=O)[C@H](CO)NC(=O)[C@H](CCCNC(=N)N)NC(=O)[C@@H](NC(=O)[C@H](CO)NC(=O)[C@H](Cc1c[nH]cn1)NC(=O)[C@H](CCC(N)=O)NC(=O)[C@H](Cc1ccc(O)cc1)NC(=O)[C@H](CCCNC(=N)N)NC(=O)[C@H](CCC(=O)O)NC(=O)[C@@H](N)CC(C)C)C(C)C)C(=O)N[C@@H](CCCNC(=N)N)C(=O)N1CCC[C@H]1C(=O)N[C@@H](Cc1ccc(O)cc1)C(=O)N[C@H](C(=O)N[C@@H](CCCCN)C(=O)O)[C@@H](C)O [compound 48] (H-LERYQHSVRSSLRPYTK-OH; N-terminus and C-terminus assumed)

# From patent US20220395553A1, “CXCR4 ANTAGONIST PEPTIDES” (COHBAR, INC., priority 2019, published 2022)
